Test results from patent US20240287138A1, “CYCLIC PEPTIDES FOR INHIBITING TNF RECEPTOR 1 ACTIVITY” (Merck Sharp & Dohme LLC, priority 2023, published 2024).
Like-named read-outs stand apart in the source and are kept apart here. Numbered stars: 1 amine (or outer) side, 2 acyl side, 3 side chain; on linkers, the order of the positions; unused ones are H or OH. Square brackets hold non-standard residues; d marks the D form. Peptide text beside a SMILES is read from it. * marks the point of attachment. Trp(βS-Me,7-OMe) = COc1cccc2c([C@H](C)[C@H](N)C(=O)O)c[nH]c12; Trp(1-CH2COOH) = N[C@@H](Cc1cn(CC(=O)O)c2ccccc12)C(=O)O; Phe(4-SO2NH2) = N[C@@H](Cc1ccc(S(N)(=O)=O)cc1)C(=O)O; dPro(trans-4-NMe2) = CN(C)[C@@H]1CN[C@@H](C(=O)O)C1; Trp(7-CN) = N#Cc1cccc2c(C[C@H](N)C(=O)O)c[nH]c12; X20 = O=C1NCc2ccc(C[C@H](N[*:1])C(=O)[*:2])cc21; Phe(3-CONH2) = NC(=O)c1cccc(C[C@H](N)C(=O)O)c1; Phe(4-CONH2) = NC(=O)c1ccc(C[C@H](N)C(=O)O)cc1; Phe(4-COOH) = N[C@@H](Cc1ccc(C(=O)O)cc1)C(=O)O; dPro(trans-4-F) = O=C(O)[C@H]1C[C@H](F)CN1; dPro(4S-NH2) = N[C@@H]1CN[C@@H](C(=O)O)C1; Pip(5R-OH) = O=C(O)[C@@H]1CC[C@@H](O)CN1; X1 = O=C([C@@H]1CC[C@H](N[*:1])C1)[*:2]; 4Pal = N[C@@H](Cc1ccncc1)C(=O)O; dHyp = O=C(O)[C@H]1C[C@H](O)CN1; αMeS = C[C@](N)(CO)C(=O)O; Carboxymethyl = O=C(O)C*; Nle = CCCC[C@H](N)C(=O)O; Sar = CNCC(=O)O

Key:
human TNFR2 ECD protein = molecular target: T1, human TNFR2 ECD protein (Homo sapiens, UniProt P20333); assay: SPR off-target binding (selectivity) to human TNFR2 ECD
T1 construct: HRV 3C protease cleavage site (C); 6His (C, cleaved yes); made in house; host or cells: Sf21 insect cells (baculovirus), secreted
T1 sequence (P20333 23-257): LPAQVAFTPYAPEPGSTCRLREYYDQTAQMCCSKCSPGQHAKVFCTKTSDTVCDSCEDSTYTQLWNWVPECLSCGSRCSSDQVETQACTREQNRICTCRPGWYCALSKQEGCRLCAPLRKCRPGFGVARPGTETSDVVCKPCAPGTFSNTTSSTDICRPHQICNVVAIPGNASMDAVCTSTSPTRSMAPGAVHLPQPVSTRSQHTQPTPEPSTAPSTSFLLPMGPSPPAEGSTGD
Method in brief: (§1)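 Biotinylated human TNFR1 or TNFR2 ECD (C-terminal Avi-tag, Sf21-expressed) captured on a regenerable streptavidin chip; peptide analytes flowed in 10 mM HEPES pH 7.4, 150 mM NaCl, 3 mM EDTA, 0.05% P20, 2% DMSO. kon and koff measured; affinity calculated from the rate constants.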

[1] = molecular target: T2, human TNFR1 extracellular domain (ECD) protein (Homo sapiens, UniProt P19438); assay: SPR binding affinity to captured human TNFR1 ECD
T2 construct: HRV 3C protease cleavage site (C); 6His (C, cleaved yes); made in house; host or cells: Sf21 insect cells (baculovirus), secreted
T2 sequence (P19438 30-211): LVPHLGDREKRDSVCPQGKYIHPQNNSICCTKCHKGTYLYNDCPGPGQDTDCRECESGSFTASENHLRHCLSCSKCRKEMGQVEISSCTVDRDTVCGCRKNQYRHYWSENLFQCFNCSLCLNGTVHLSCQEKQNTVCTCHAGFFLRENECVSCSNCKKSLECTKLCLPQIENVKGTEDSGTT
Method in brief: as §1

[2] = molecular target: T3, human soluble TNFR1 (sTNFR1) (Homo sapiens, UniProt P19438); assay: Human sTNFR1-peptide displacement assay (LanthaScreen Eu TR-FRET binding assay)
T3 construct: made in house; host or cells: Sf21 (baculovirus)
T3 sequence (P19438 with tags, fused parts or gaps): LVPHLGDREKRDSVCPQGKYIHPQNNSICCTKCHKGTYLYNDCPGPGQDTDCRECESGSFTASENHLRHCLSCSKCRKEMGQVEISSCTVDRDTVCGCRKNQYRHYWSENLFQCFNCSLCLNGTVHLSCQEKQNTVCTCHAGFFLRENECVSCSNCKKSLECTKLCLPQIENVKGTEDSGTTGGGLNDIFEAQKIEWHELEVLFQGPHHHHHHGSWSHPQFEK
Method in brief: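 Readout is the 665/615 nm TR-FRET ratio (Eu anti-His donor, streptavidin-Alexa647 acceptor), normalized to DMSO and saturating displacer, fit by Morrison-based five-parameter logistic for Kd^app. His-tagged sTNFR1 (1-211) prebound to 100 nM biotinylated peptide SEQ ID NO.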

[3] = biotinylated human TNFR2 ECD on streptavidin chip, read-out: SPR hTNFR2 KD
[4] = biotinylated human TNFR1 ECD on streptavidin chip, from kon and koff, read-out: SPR hTNFR1 KD
[5] = displacement of biotinylated peptide SEQ ID NO. 1 from sTNFR1, 20 point titration, 5-parameter fit based on Morrison equation (tight binding), read-out: TR-FRET Kd^app

| SMILES | Kd (human TNFR2 ECD protein) | Kd [1] | Kd [2] | Kd (human TNFR2 ECD protein; [3]) | Kd [1, 4] | Kd [2, 5] |
| --- | --- | --- | --- | --- | --- | --- |
| CCCC[C@@H]1NC(=O)[C@@H]2CC[C@@H](C2)NC(=O)[C@H]([C@@H](C)c2c[nH]c3c(OC)cccc23)NC(=O)CN(C)C(=O)[C@H](Cc2ccc(C(N)=O)cc2)NC(=O)[C@H](Cc2ccc(S(N)(=O)=O)cc2)NC(=O)[C@](C)(CO)NC(=O)[C@H](Cc2c[nH]c3c(C#N)cccc23)NC(=O)[C@H](Cc2ccc(C(=O)O)cc2)NC(=O)[C@H](CC(N)=O)NC(=O)[C@H]2C[C@H](N(C)C)CN2C(=O)[C@H](Cc2cn(CC(=O)O)c3ccccc23)NC(=O)[C@@H]2CC[C@@H](O)CN2C(=O)[C@H](Cc2ccncc2)NC1=O [SEQ ID NO. 2] (cyclo([4Pal][Pip(5R-OH)][Trp(1-CH2COOH)][dPro(trans-4-NMe2)]N[Phe(4-COOH)][Trp(7-CN)][αMeS][Phe(4-SO2NH2)][Phe(4-CONH2)][Sar][Trp(βS-Me,7-OMe)][X1][Nle])) | > 1000 nM | 0.07 nM | 0.07 nM |  |  |  |
| CCCC[C@@H]1NC(=O)[C@@H]2CC[C@@H](C2)NC(=O)[C@H]([C@@H](C)c2c[nH]c3c(OC)cccc23)NC(=O)CN(C)C(=O)[C@H](Cc2ccc(OCC(=O)O)cc2)NC(=O)[C@H](Cc2ccc(S(N)(=O)=O)cc2)NC(=O)[C@](C)(CO)NC(=O)[C@H](Cc2c[nH]c3c(C#N)cccc23)NC(=O)[C@H](Cc2ccc(OCC(=O)O)cc2)NC(=O)[C@H](CC(N)=O)NC(=O)[C@H]2C[C@H](N)CN2C(=O)[C@H](Cc2cn(CC(=O)O)c3ccccc23)NC(=O)[C@@H]2CC[C@@H](O)CN2C(=O)[C@H](Cc2ccncc2)NC1=O [SEQ ID NO. 18] (cyclo([4Pal][Pip(5R-OH)][Trp(1-CH2COOH)][dPro(4S-NH2)]NY(Carboxymethyl)[Trp(7-CN)][αMeS][Phe(4-SO2NH2)]Y(Carboxymethyl)[Sar][Trp(βS-Me,7-OMe)][X1][Nle])) |  |  |  | > 1000 nM | 0.05 nM | 0.08 nM |
| CCCC[C@@H]1NC(=O)[C@@H]2CC[C@@H](C2)NC(=O)[C@H]([C@@H](C)c2c[nH]c3c(OC)cccc23)NC(=O)CN(C)C(=O)[C@H](Cc2cccc(C(N)=O)c2)NC(=O)[C@H](Cc2ccc(C(N)=O)cc2)NC(=O)[C@](C)(CO)NC(=O)[C@H](Cc2c[nH]c3c(C#N)cccc23)NC(=O)[C@H](Cc2ccc(C(=O)O)cc2)NC(=O)[C@H](CC(N)=O)NC(=O)[C@H]2C[C@H](F)CN2C(=O)[C@H](Cc2c[nH]c3ccccc23)NC(=O)[C@@H]2CC[C@@H](O)CN2C(=O)[C@H](Cc2ccncc2)NC1=O [SEQ ID NO. 21] (cyclo([4Pal][Pip(5R-OH)]W[dPro(trans-4-F)]N[Phe(4-COOH)][Trp(7-CN)][αMeS][Phe(4-CONH2)][Phe(3-CONH2)][Sar][Trp(βS-Me,7-OMe)][X1][Nle])) | > 1000 nM | 0.03 nM | 0.04 nM |  |  |  |
| CCCC[C@@H]1NC(=O)[C@@H]2CC[C@@H](C2)NC(=O)[C@H]([C@@H](C)c2c[nH]c3c(OC)cccc23)NC(=O)CN(C)C(=O)[C@H](Cc2ccc(C(N)=O)cc2)NC(=O)[C@H](Cc2ccc(C(N)=O)cc2)NC(=O)[C@](C)(CO)NC(=O)[C@H](Cc2c[nH]c3c(C#N)cccc23)NC(=O)[C@H](Cc2ccc3c(c2)C(=O)NC3)NC(=O)[C@H](CC(N)=O)NC(=O)[C@H]2C[C@H](OCC(=O)O)CN2C(=O)[C@H](Cc2cn(CC(=O)O)c3ccccc23)NC(=O)[C@@H]2CC[C@@H](O)CN2C(=O)[C@H](Cc2ccncc2)NC1=O [SEQ ID NO. 22] (cyclo([4Pal][Pip(5R-OH)][Trp(1-CH2COOH)][dHyp](Carboxymethyl)N[X20][Trp(7-CN)][αMeS][Phe(4-CONH2)][Phe(4-CONH2)][Sar][Trp(βS-Me,7-OMe)][X1][Nle])) |  |  |  | > 1000 nM | 0.09 nM | 0.08 nM |
